Experimental data as given in US20240216316A1, “DIHOMO-GAMMA LINOLENIC ACID (DGLA) IS A NOVEL SENOLYTIC” (Buck Institute for Research on Aging, priority 2020, published 2024).
Entries after “also recorded” stand apart in the source; their conditions may differ.

Experiments:
IMR-90 fibroblasts = test: DGLA toxicity to senescent vs mock-irradiated IMR-90 fibroblasts, light microscopy; assay type: cell-based; conditions: IMR-90 mock-irradiated or 10Gy IR, 10 days later 50 micromolar DGLA for 2 days
Method: (§1) IMR-90 fibroblasts were either mock-irradiated (Mock) or irradiated with 10Gy of ionization radiation (IR) to induce senescence. 10 days later, cells were cultured in the presence of either vehicle (media plus FBS carrier) or 50 micromolar DGLA for 2 days. Cells were then photographed using light microscopy.
as §1, with “To evaluate the effect of DGLA on senescent cells, IMR-90” for “IMR-90”, “senescence. Ten” for “senescence. 10”, “days later” for “days later,”

[1] = system: senescent cells [SEN(IR)]; test: COX-2 dependence of DGLA killing of senescent cells (NS-398 or DMSO), light microscopy and cell counts; assay type: cell-based; conditions: SEN(IR) vs non-senescent; NS-398 (COX-2 inhibitor) or DMSO for 10 days, then 25 micromolar DGLA for 2 days
Method: Cells were either irradiated [SEN(IR)] or mock irradiated (non-senescent or “NonS”) and cultured continuously for 10 days in the presence of either NS-398 (a COX-2 inhibitor) or DMSO (vehicle). Cells were then treated with either carrier (BSA) or DGLA (25 micromolar) for 2 days, and images were captured by light microscopy.
(§2) Cells were treated as in FIG. 5. NS≡Non-senescent proliferating, SEN(IR)=IR-induced senescence, treated with 25 micromolar DGLA and either DMSO or NS-398. Panel A) Percent survival was calculated by cell counts relative to cells treated without DGLA. Panel B) Cells were stained for cleaved caspase 3 by immunofluorescence and expressed as stained cells relative to DAPI positive nuclei.
Since DGLA is converted to non-toxic arachidonic acid by D5D in most normal cells (Nakamura & Nara (2004) Annu. Rev. Nutr. 24: 345-376), the combination of gain of COX-2 and loss of D5D in senescent cells makes this an exploitable weakness. […] Its derivatives, the 1-series prostaglandins (PGX1's) are largely anti-inflammatory, and therefore may also have positive effects in the context of sterile inflammation associated with aging, so-called “inflammaging” (Franceschi & Campisi (2014) J. Gerontol. A Biol. Sci. Med. Sci. 69 (Suppl 1): S4-9).

[2] = system: senescent cells [SEN(IR)]; test: Cleaved caspase 3 immunofluorescence (apoptosis) after DGLA with NS-398 or DMSO; assay type: cell-based; conditions: 25 micromolar DGLA with DMSO or NS-398; stained cells relative to DAPI positive nuclei
Method: as §2

p16-positive cells [3] = test: Senescence-associated beta-galactosidase staining of epididymal fat and liver of aged P16-3MR mice; assay type: in vivo; conditions: P16-3MR mice aged 22 months; gavage 400 mg/kg for 5 consecutive days; tissues five days after final gavage
Method: P16-3MR mice were aged for 22 months, and gavaged with 400 mg/kg of DGLA ethyl ester or vehicle (phosal 50) for 5 consecutive days. Five days after the final gavage, epididymal fat and liver tissues were isolated and stained for senescence-associated beta-galactosidase.

IMR-90 [4] = test: Cell counts and light microscopy of senescent vs nonsenescent IMR-90 treated with T3364366 in 10% or 0.2% FBS; assay type: cell-based; conditions: 72 hours; for FBS dependence of cell killing: 10% FBS vs 0.2% FBS, normalized to 0 dose groups
Method: (§3) IMR-90 were induced to senesce via 10 Gy of ionizing radiation [SEN(IR)] and cultured for 7 days, followed by treatment with the indicated doses of T3364366 in the presence of 10% FBS (to provide PUFAs). Nonsenescent (NonSEN) cells served as a control. After 72 hours, cell numbers were counted and normalized to DMSO treatments.
Cells from FIG. 10 were visualized by light microscopy, allowing visualization of the cytotoxic properties of T334366 at various doses. (see, e.g., FIG. 11).
as §3, with “(which provides PUFAs and growth factors) (FIG. 12, panels A and B—red line, squares) or 0.2% FBS (FIG. 12, panel B—purple line, circles) (which induces quiescence, but limits the ability of cells to synthesize DGLA).” for “(to provide PUFAs).”, “the 0 dose treatment groups.” for “DMSO treatments.”

[5] = biological target: delta-5-desaturase (D5D, gene name: FADS1) (Homo sapiens, UniProt O60427); conditions: as described in Obukowicz et al. (1998) / Miyahisa et al. (2016); cited from earlier work
delta-5-desaturase (D5D, gene name: FADS1), sequence (O60427 whole entry, species assumed): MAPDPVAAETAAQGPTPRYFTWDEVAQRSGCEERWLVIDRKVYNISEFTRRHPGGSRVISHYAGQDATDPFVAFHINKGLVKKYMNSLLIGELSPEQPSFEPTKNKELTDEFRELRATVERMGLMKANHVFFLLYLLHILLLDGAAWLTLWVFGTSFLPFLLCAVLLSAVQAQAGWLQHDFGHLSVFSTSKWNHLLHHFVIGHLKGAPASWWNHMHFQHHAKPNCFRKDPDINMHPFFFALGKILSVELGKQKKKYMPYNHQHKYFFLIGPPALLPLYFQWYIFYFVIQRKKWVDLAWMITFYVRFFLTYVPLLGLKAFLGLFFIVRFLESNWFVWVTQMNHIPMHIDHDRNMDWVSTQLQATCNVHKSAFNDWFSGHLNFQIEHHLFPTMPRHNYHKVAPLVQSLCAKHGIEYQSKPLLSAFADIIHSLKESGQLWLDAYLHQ

IMR-90 [6] = test: Cell counts of senescent vs nonsenescent IMR-90 treated with CP 24,879 plus sub-toxic DGLA; assay type: cell-based; conditions: 11.75 μM CP 24,879 in the presence of 10 μM DGLA; 72 hours; SEN(IR) vs NonSEN
Method: as §3, with “11.75 μM CP 24,879 or vehicle (DMSO)” for “the indicated doses of T3364366”, “a sub-toxic concentration of DGLA (10 μM).” for “10% FBS (to provide PUFAs).”

[7] = biological target: T1, delta-6-desaturase (FADS2/D6D) (Homo sapiens, UniProt O95864); conditions: as described in Obukowicz et al. (1998); cited from earlier work
T1 sequence (O95864 1-444): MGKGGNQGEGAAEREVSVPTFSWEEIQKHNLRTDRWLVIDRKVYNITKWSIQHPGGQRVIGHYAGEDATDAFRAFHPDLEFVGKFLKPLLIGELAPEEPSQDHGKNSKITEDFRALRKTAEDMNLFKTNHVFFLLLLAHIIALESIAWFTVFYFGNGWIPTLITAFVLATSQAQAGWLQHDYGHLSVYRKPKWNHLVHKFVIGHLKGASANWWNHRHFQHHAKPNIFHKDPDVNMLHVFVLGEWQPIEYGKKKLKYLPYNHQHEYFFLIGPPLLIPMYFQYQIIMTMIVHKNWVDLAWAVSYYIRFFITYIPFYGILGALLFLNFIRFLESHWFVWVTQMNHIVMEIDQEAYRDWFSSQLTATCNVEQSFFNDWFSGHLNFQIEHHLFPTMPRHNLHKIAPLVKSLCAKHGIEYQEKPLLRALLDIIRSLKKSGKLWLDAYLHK

p16-positive cells [8] = test: p16 promoter luminescence in aged P16-3MR mice before and after DGLA ethyl ester gavage; assay type: in vivo; conditions: P16-3MR mice aged 22 months; gavage 400 mg/kg for 5 consecutive days; measured two days after final gavage
Method: P16-3MR mice were aged for 22 months and luminescence (p16 promoter activity) was measured by luminometry (panel A). Mice were then gavaged with 400 mg/kg of DGLA ethyl ester or vehicle (phosal 50) for 5 consecutive days. Two days after the final gavage, luminescence was again measured (panel B). Six total mice were measured for luminescence and plotted before and after DGLA treatment (panel C).

For `CCCCC/C=C\C/C=C\C/C=C\CCCCCCC(=O)O` [DGLA, dihomo-gamma-linolenic acid], the “toxicity to senescent cells” value (IMR-90 fibroblasts) was “selectively toxic to senescent cells”, the “killing of senescent cells, COX-2 dependence” value [1] was “selectively toxic to senescent cells in a COX-2 dependent manner; also recorded: kills senescent cells in a COX-2-dependent manner” and the “apoptosis in senescent cells (cleaved caspase 3), COX-2 dependence” value [2] was “induces apoptosis in senescent cells in a COX-2-dependent manner”. For the same compound, the “senescence-associated beta-galactosidase in epididymal fat and liver tissues” value (p16-positive cells [3]) was “less senescence-associated beta-glactodsidase was observed”.

In the case of `CC(=O)NCCSc1nc2cscc2c(=O)n1-c1ccc(OCC(F)(F)F)cc1` [Compound T3364366, N-[2-[[3,4-Dihydro-4-oxo-3-[4-(2,2,2-trifluoroethoxy)phenyl]thieno[3,4-d]pyrimidin-2-yl]thio]ethyl]acetamide], the “FBS dependence of cell killing” value (IMR-90 [4]) is reported as “only kills senescent cells in the presence of FBS”, the “FBS dependence of cell killing” value (IMR-90 [4]; listed as T334366) is reported as “FBS-dependent killing of senescent cells” and the “killing of senescent cells (cell numbers normalized to DMSO)” value (IMR-90 [4]; indicated doses, 10% FBS, SEN(IR) vs NonSEN) is reported as “selectively kills senescent cells”. For the same compound, the “inhibition of delta-5-desaturase” value [5] was “specific inhibitor of delta-5-desaturase”.

For `CC(C)CCOc1ccc(N)cc1.Cl` [CP 24,879, 4-(3-methylbutoxy)-benzenamine, monohydrochloride], the “killing of senescent cells (cell numbers normalized to DMSO)” value (IMR-90 [6]) is listed as “selectively kills senescent cells”, the “inhibition of delta-5-desaturase” value [5] is listed as “inhibitor of both delta-5- and delta-6-desaturase” and the “inhibition of delta-6-desaturase” value [7] is listed as “inhibitor of both delta-5- and delta-6-desaturase”.

With `CCCCC/C=C\C/C=C\C/C=C\CCCCCCC(=O)OCC` [DGLA ethyl ester] the “burden of p16-positive cells (luminescence, p16 promoter activity)” value (p16-positive cells [8]) was “lowers the burden of p16-positive cells” and the “senescence-associated beta-galactosidase in epididymal fat and liver tissues” value (p16-positive cells [3]) was “lowers the burden of p16-positive cells”.
